Results taken from ChEMBL document CHEMBL1201862, “PubChem BioAssay data set” (2004).
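Test compounds were applied to cells in 96-well plates for 48 hours at 5 doses. Abbreviation: GI50, concentration required for 50% inhibition of growth.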 Calls of active or inactive are those of the source. Rule as the data show it: active = GI50 up to about 1.1 µM and inactive = higher.

Legend:
Test in all cases: inhibition of tumour cell growth, NCI panel, 48 h
SR = test system: SR
A498 = test system: A498
HCT-15 = test system: HCT-15
KM12 = test system: KM12
K562 = test system: K562
M14 = test system: M14
OVCAR-3 = test system: OVCAR-3
OVCAR-8 = test system: OVCAR-8
TK-10 = test system: TK-10
RXF 393 = test system: RXF 393
Malme-3M = test system: Malme-3M
NCI-H522 = test system: NCI-H522
SF-295 = test system: SF-295
UACC-257 = test system: UACC-257
OVCAR-5 = test system: OVCAR-5
SNB-19 = test system: SNB-19
DU-145 = test system: DU-145
MCF7 = test system: MCF7

Measured: GI50

BrCC[N+]12CCCN1CCC2
inactive: SR 1.68 µM | A498 45.9 µM | KM12 > 67.3 µM | K562 2.9 µM | M14 11 µM | OVCAR-3 13.9 µM | OVCAR-8 19 µM | TK-10 14.5 µM | RXF 393 14 µM | Malme-3M 2.32 µM | SF-295 > 72.9 µM | UACC-257 18.7 µM | OVCAR-5 21.5 µM | SNB-19 > 43 µM | DU-145 45.3 µM
12.3 µM: HCT-15
active: NCI-H522 0.664 µM

CCOC(=N)CC(=O)Nc1ccc(Cl)cc1
> 100 µM: HCT-15
inactive: SR > 100 µM | A498 > 100 µM | KM12 > 100 µM | K562 > 100 µM | M14 > 100 µM | OVCAR-3 > 100 µM | OVCAR-8 > 100 µM | TK-10 > 100 µM | RXF 393 > 100 µM | Malme-3M > 100 µM | NCI-H522 > 100 µM | SF-295 > 100 µM | UACC-257 > 100 µM | OVCAR-5 > 100 µM | SNB-19 > 100 µM

NC(=O)c1cc(-c2ccc(-n3ccnc3)cc2)nnc1O
inactive: SR > 100 µM | A498 > 100 µM | M14 > 100 µM | OVCAR-8 > 100 µM | TK-10 > 100 µM | RXF 393 > 100 µM | Malme-3M > 100 µM | NCI-H522 > 100 µM | UACC-257 > 100 µM | OVCAR-5 > 100 µM | MCF7 67.6 µM | SNB-19 > 100 µM | DU-145 > 100 µM
> 100 µM: HCT-15

Cc1ccc(NC(=O)C(=O)C2C(=O)NC(=O)NC2=O)cc1C
inactive: SR > 100 µM | KM12 > 100 µM | K562 > 100 µM | M14 > 100 µM | OVCAR-3 > 100 µM | OVCAR-8 > 100 µM | TK-10 > 100 µM | RXF 393 > 100 µM | Malme-3M > 100 µM | NCI-H522 > 100 µM | SF-295 > 100 µM | UACC-257 > 100 µM | OVCAR-5 > 100 µM | SNB-19 > 100 µM
> 100 µM: HCT-15

CCOP(=O)(OCC)C1C(CO)OC(n2ccc(=O)[nH]c2=O)C1O (stereo not drawn)
inactive: SR > 100 µM | A498 > 100 µM | KM12 > 100 µM | K562 > 100 µM | M14 > 100 µM | OVCAR-3 > 100 µM | OVCAR-8 > 100 µM | TK-10 > 100 µM | RXF 393 > 100 µM | Malme-3M > 100 µM | NCI-H522 > 100 µM | SF-295 > 100 µM | UACC-257 > 100 µM | SNB-19 > 100 µM
> 100 µM: HCT-15

COC[C@H](C)/N=C/N1CCc2ccccc2C1(Cc1ccccc1)Cc1ccccc1
inactive: SR 11.6 µM | KM12 13.6 µM | K562 6.97 µM | M14 10.3 µM | OVCAR-3 22.1 µM | OVCAR-8 15.1 µM | TK-10 17.8 µM | RXF 393 15.2 µM | Malme-3M 11.8 µM | NCI-H522 12.7 µM | SF-295 14.5 µM | UACC-257 13.8 µM | SNB-19 17.3 µM
11 µM: HCT-15

C=C(CN(C)C)C1(c2ccccc2)CC2(CCCC2)C(=O)O1 (stereo not drawn)
inactive: A498 > 100 µM | KM12 > 100 µM | K562 30.2 µM | M14 66.5 µM | OVCAR-3 38.7 µM | OVCAR-8 > 100 µM | TK-10 > 100 µM | RXF 393 > 100 µM | Malme-3M 14.7 µM | NCI-H522 20.9 µM | SF-295 > 100 µM | UACC-257 49.2 µM | OVCAR-5 > 100 µM | MCF7 74.1 µM | SNB-19 > 100 µM | DU-145 > 100 µM
76.9 µM: HCT-15
